Results from the COVID Moonshot data (paper PMC11187573), “Identification of SARS-CoV-2 Mpro inhibitors through deep reinforcement learning for de novo drug design and computational chemistry approaches” (RSC Medicinal Chemistry, 2024).

Columns and labels:
[1] = target: SARS-CoV-2 Main Protease (SARS-CoV-2) (UniProt P0DTD1)
[2] = target: SARS-CoV-2 Main Protease (SARS-CoV-2) (UniProt P0DTD1); remark: listed apart in the source

Compound | inhibition ([1]; 20.0 µM) [%] | inhibition ([1]; 50.0 µM) [%] | inhibition ([2]; 50.0 µM) [%] | relative solubility at 20 uM | relative solubility at 100 uM | IC50 [2] [µM] | inhibition ([2]; 20.0 µM) [%] | IC50 [1] [µM]
O=S(=O)(CCc1ccccc1)Nc1cccnc1 | -0.803 | -32.5 | 17.2 | 0.98 | 0.99 | – | – | –
O=C(CCl)N1CCN(Cc2cccc(CNC(=O)N3CCOCC3)c2)CC1 | 11.7 | 32.4 | 95.6 | 1 | 1 | 50.3 | – | –
C=CC(=O)N1CCN(Cc2cc(Cl)cc3ccccc23)CC1 | – | 37.9 | 0 | 0.86 | 0.75 | – | 0 | –
CCOc1ccccc1OC1CCN(C(=O)c2cc(=O)[nH]c3cc(F)ccc23)C1 (centres undefined) | 13.4 | 21.4 | 0 | 1 | 0.99 | – | – | –
O=C(NCc1cccc(C(=O)N2CCOCC2)c1)c1cnc2c(c1)c(=O)[nH]c(=O)n2Cc1ccccc1 | 2.69 | -3.76 | 0 | 0.99 | 0.9 | – | – | –
CC(C)c1ncncc1NC(=O)C(C)c1cccc(Cl)c1 (centres undefined) | 6.43 | 19 | 1.6 | 1.01 | 1 | – | – | –
C=CC(=O)N(c1ccc(C(C)(C)C)cc1)C(C(=O)NCC)c1cccnc1 (centres undefined) | 57 | 50.2 | 100 | 0.99 | 1 | 19.4 | 52.6 | –
NS(=O)(=O)c1ccc(N2CCC(CO)CC2)cc1 | 3.95 | 7.03 | 2.83 | 1 | 1 | – | -1.13 | –
Cc1ccncc1NC(=O)CCc1ccc(F)cc1 | 1.95 | 5.92 | 6.51 | 1 | 1 | – | – | –
CCCNC(=O)C(C)NC(=O)N(C)Cc1csc(C)n1 (centres undefined) | 0.814 | -2.74 | – | 1 | 1 | – | 0 | –
COc1ccc2c(c1)CN(C(=O)CCl)C(c1ccccc1)C2 (centres undefined) | 97.4 | 97.5 | 100 | 0.98 | 0.96 | 1.78 | – | –
O=C(Cc1cccc(Cl)c1)Nc1cnccc1O | 0.0135 | -2.06 | 0 | 1 | 1 | – | – | –
N#Cc1cccc(NC(=O)Cc2c[nH]c3ncccc23)c1 | 2.74 | 2.91 | – | 1 | 0.95 | – | 0 | –
Cc1ccncc1NC(=O)Cc1cccc(Br)c1 | 56.2 | 77.7 | 98.3 | 1.01 | 1 | 15.9 | – | –
CO[C@@H](C)C(=O)Nc1cnccc1C (stereo in doubt) | 1.23 | 0.255 | 6.67 | 1 | 1.01 | – | – | –
COC1(CC(=O)Nc2cnccc2C)CC1 | -5.47 | 13.8 | 0 | 1.01 | 1 | – | – | –
C=CC(=O)N(c1ccc(C(C)(C)C)cc1)C(C(=O)NCc1ccc(F)cc1)c1cccnc1 (centres undefined) | 51.2 | 76.4 | 100 | 0.98 | 0.66 | 10.5 | 79.3 | –
O=C(CCn1ccnn1)NC(CN1CCOCC1)c1ccccc1 (centres undefined) | 2.31 | 5.19 | 0 | 1 | 1 | – | 0 | –
C=CC(=O)N(C1CCC2(CCCC2)CC1)C(C(=O)NC(C)(C)C)c1cccnc1 (centres undefined) | -5.6 | 6.94 | – | 1 | 0.97 | – | 0 | –

Compound | inhibition ([1]; 20.0 µM) [%] | inhibition ([1]; 50.0 µM) [%] | inhibition ([2]; 50.0 µM) [%] | relative solubility at 20 uM | relative solubility at 100 uM | IC50 [2] [µM] | inhibition ([2]; 20.0 µM) [%] | IC50 [1] [µM]
CCSCC1CCN(c2ccc(S(N)(=O)=O)cc2)CC1 | – | -25.8 | 40.2 | 1 | 1.01 | – | 26 | –
CN(CCNC(=O)c1cc(=O)[nH]c2ccccc12)c1ccccc1 | -2.32 | 19.2 | 8.3 | 0.91 | 0.77 | – | – | –
Cn1cnnc1NC(=O)Cc1cccc(Cl)c1 | 5.99 | -26 | -10.5 | 1.01 | 1 | – | – | –
Cc1ccnc(C)c1NC(=O)C(C)c1ccc(F)c(F)c1 (centres undefined) | -0.411 | -2.87 | 0 | 1 | 1 | – | – | –
O=C(c1cc(=O)[nH]c2ccccc12)N1CCN(c2ccc(F)cc2)CC1 | 57 | 78.5 | 52.3 | 0.99 | 0.99 | 52.7 | – | –
O=C(CCl)N1CCN(S(=O)(=O)c2cccc(F)c2)CC1 | 97.3 | 104 | 96.8 | 1 | 1 | 2.02 | 96.6 | 4.55
O=C(Nc1ccccc1)c1cc(Cl)ccc1O | 3.75 | 8.41 | – | 1 | 0.89 | – | 0 | –
O=C(Cc1cccc(Cl)c1)Nc1cnccn1 | 3.71 | 13.3 | 0 | 1.01 | 1 | – | – | –
Cc1cccc(NC(=O)Cn2cncc2C)n1 | -1.3 | -3.38 | 0 | 1 | 1.01 | – | – | –
O=C(Cc1cc(Cl)cc(Cl)c1)Nc1nncs1 | 13.9 | -0.821 | 0 | 0.84 | 0.7 | – | – | –
O=C(Nc1ccnnc1)NC(Cc1ccccc1)C(=O)N1CCCC1 (centres undefined) | 0.0835 | 3.23 | 0 | 1 | 1 | – | 0 | –
Nc1cccc(C2CN(C(=O)CCl)Cc3ccccc32)c1 (centres undefined) | 48 | 53.4 | 100 | 0.97 | 0.96 | 11.4 | – | –
C=CC(=O)N(c1ccc(N(C)C)c(C)c1)C(C(=O)Nc1ccc(OC)cc1)c1cccnc1 (centres undefined) | 2.56 | 7.05 | 2.05 | 0.88 | 0.77 | – | 0 | –
O=C(Cc1ccc2ccccc2c1)Nc1cc(C(F)(F)F)ccn1 | -2.55 | 3.43 | 29.3 | 0.9 | 0.38 | – | 11 | –
O=C(c1ccccc1)N1CCN(C(=O)C2CCOCC2)CC1 | 2.9 | 6.27 | 5.34 | 1 | 1 | – | 0.98 | –
O=C(CCl)N1CCN(C2(c3cccc(Cl)c3)CC2)CC1 | 55.7 | 80.8 | 41.2 | 1.01 | 0.99 | – | – | 52.3
CC(=O)NCc1cccc(NC(=O)Cc2cncnc2)c1 | 3.15 | 6.22 | 0 | 1.01 | 1 | – | – | –
COC(=O)C(c1ccccc1Cl)N1CCc2sccc2C1 (centres undefined) | -3.49 | 4.1 | 0 | 0.97 | 0.79 | – | – | –
CC(=O)N1CCN(Cc2cccc(C#N)c2)CC1 | -0.339 | 6.59 | – | 1 | 0.99 | – | 0 | –
